In US10280198B2, “Therapeutic agents for reducing parathyroid hormone levels” (KAI PHARMACEUTICALS, INC., priority 2009, dated 2019):
Read-outs that look alike come from different tables or passages of the source. Square brackets hold non-standard residues; d marks the D form. Peptide text beside a SMILES is read from it.

Assays:
[1] = system: rat peritoneal mast cells; assay: In vitro histamine induction in rat peritoneal mast cells; type: cell-based
Summary of the method: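 Mast cells from peritoneal lavage of Sprague Dawley rats were incubated with compound at 10 μM for 15 min at 37 °C in HBSS + 25 mM HEPES pH 7.4. Supernatant histamine measured by EIA; response expressed as fold change versus pre-incubation levels.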

[2] = target: T1, human calcium-sensing receptor (CaSR) (Homo sapiens, UniProt P41180); assay: In vitro cell assay in HEK-293 expressing the human calcium-sensing receptor (IP1 production); type: cell-based
T1 construct: expressed in transfected cells; host or cells: HEK 293T cells, transiently transfected (lipofectamine 2000); in some cases HEK293 cells stably transfected
T1 sequence (P41180 20-1078): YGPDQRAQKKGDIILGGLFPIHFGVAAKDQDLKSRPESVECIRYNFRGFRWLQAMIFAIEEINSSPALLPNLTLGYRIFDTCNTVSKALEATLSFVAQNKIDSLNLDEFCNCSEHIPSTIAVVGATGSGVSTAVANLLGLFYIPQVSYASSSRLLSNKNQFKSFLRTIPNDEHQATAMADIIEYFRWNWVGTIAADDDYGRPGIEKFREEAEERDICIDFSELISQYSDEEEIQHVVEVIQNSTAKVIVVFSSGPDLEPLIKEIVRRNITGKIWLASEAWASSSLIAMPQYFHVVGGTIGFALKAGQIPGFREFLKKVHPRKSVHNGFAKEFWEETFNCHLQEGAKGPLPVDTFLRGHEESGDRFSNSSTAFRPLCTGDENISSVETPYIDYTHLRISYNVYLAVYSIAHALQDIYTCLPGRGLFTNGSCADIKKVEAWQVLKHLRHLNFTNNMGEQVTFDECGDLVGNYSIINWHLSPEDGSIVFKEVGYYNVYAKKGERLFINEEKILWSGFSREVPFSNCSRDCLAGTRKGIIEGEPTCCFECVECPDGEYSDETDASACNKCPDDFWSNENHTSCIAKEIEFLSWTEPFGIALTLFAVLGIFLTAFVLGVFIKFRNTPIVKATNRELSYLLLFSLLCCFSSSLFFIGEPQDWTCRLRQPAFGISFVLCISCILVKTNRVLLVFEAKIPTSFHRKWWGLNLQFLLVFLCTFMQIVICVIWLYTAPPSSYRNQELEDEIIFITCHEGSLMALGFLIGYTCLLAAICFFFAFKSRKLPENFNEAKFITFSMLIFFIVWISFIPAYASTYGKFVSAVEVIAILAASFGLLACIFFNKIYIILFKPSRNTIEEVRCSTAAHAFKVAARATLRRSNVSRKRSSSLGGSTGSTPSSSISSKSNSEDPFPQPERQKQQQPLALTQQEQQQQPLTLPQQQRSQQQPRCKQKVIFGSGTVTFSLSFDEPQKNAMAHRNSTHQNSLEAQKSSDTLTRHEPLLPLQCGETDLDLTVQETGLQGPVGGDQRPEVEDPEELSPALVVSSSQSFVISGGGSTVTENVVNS
Experimental: The activity of a variety of peptides and conjugates was tested against the human CaSR. These studies were conducted by measuring IP1 production in HEK293 cells that express the human CaSR. Each peptide was tested in eight different concentrations, in duplicates, to establish a dose response curve. Curve fitting was performed using GraphPad Prism. In Table 5, and throughout the specification, residues provided in capital letters are L-amino acids, while lower case letters indicate D-amino acids. “Ac” indicates an acetyl capping group, “NH2” indicates an amide capping group, “Ac-bAla” is an acetylated beta-alanine, “GSH” indicates reduced glutathione, “GS” indicates oxidized glutathione, “PEG” refers to polyethylene glycol, “PEG2” and “PEGS” refer to polyethylene glycol moieties of 2 kDa and 5 kDa, respectively, and “Mpa” refers to mercaptopropionic acid.
The day after, these cells were transfected with human CaSR receptor using lipofectamine 2000 transfection reagent 24 hrs post transfection, cells were seeded in 384 well plates at 8,000 cells/well. […] In some cases, EC50 values were determined by measuring inositol monophosphate production in the HEK293 cells, stably transfected with the human calcium-sensing receptor (see Table 1).
Cells were incubated with compounds at various concentrations (1 mM or 300 μM as the highest and further ½ log serial dilutions) at 37° C. for 1.5 hrs before reaction termination. […] In brief, incubation with the compound was terminated by sequentially adding D2 labeled-IP1 and cryptate-labeled anti-IP1 in lysis buffer and further incubating at room temperature for 60 minutes. […] Non-transfected 293 cells were used as negative control.
IP1 concentrations were calculated from standard curves (generated with Graph Pad Prism ver. 4) using known concentrations of IP1 standards.

plasma PTH = assay: In vivo PTH lowering after IV bolus in isoflurane-anesthetized normal Sprague Dawley rats; design: species or system rat; conditions: for duration of decreased PTH: 0.5 mg/kg IV bolus, FIG. 5; for duration of decreased PTH / 0.5 mg/kg IV bolus % PTH AUC of saline control: normal rats; for PTH-lowering activity in normal rats: 0.5 mg/kg single IV administration; for % PTH reduction of baseline at 1 hour post IV admin. of 0.5 mg/kg compound: isoflurane-anesthetized normal rats, 0.5 mg/kg IV
Summary of the method: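 Peptides were given as a 0.5 mg/kg IV bolus to normal Sprague Dawley rats kept under isoflurane throughout, with saline bolus controls.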

[3] = Table 1, IP1 in HEK293 cells expressing human CaSR, read-out: In vitro EC50
[4] = Table 5, IP1 production in HEK293 cells expressing human CaSR, eight concentrations in duplicate, read-out: EC50 in CaSR in vitro assay
[5] = Table 1, PTH at 1, 2, 3, 4 h, AUCcmpd treated/AUCsaline control*100

Compound | Histamine in vitro Fold change of non-treated at 10 uM [1] [fold] | EC50 [2, 3] [nM] | EC50 [2, 4] [nM] | duration of decreased PTH (plasma PTH) | PTH-lowering activity in normal rats (plasma PTH) | % PTH reduction of baseline at 1 hour post IV admin. of 0.5 mg/kg compound (plasma PTH; Table 1) [%] | 0.5 mg/kg IV bolus % PTH AUC of saline control (plasma PTH; [5]) [%] | 0.5 mg/kg IV bolus % PTH AUC of saline control (plasma PTH; Table 6, AUC 1-4 h) [%]
CC(=O)N[C@H](CS)C(=O)N[C@H](C)C(=O)N[C@H](CCCNC(=N)N)C(=O)N[C@H](CCCNC(=N)N)C(=O)N[C@H](CCCNC(=N)N)C(=O)N[C@H](CCCNC(=N)N)C(=O)N[C@H](CCCNC(=N)N)C(N)=O [SEQ ID NO: 8, Ac-carrrrr-NH2] (Ac-[dC][dA][dR][dR][dR][dR][dR]-NH2) | 6.6 | 1100 | 1100 | at least four hours | below the detection limit or essentially zero | 0 | 0 | 
CC(=O)N[C@H](CS)C(=O)N[C@H](CCCNC(=N)N)C(=O)N[C@H](C)C(=O)N[C@H](CCCNC(=N)N)C(=O)N[C@H](CCCNC(=N)N)C(=O)N[C@H](CCCNC(=N)N)C(=O)N[C@H](CCCNC(=N)N)C(N)=O [SEQ ID NO: 9, Ac-crarrrr-NH2] (Ac-[dC][dR][dA][dR][dR][dR][dR]-NH2) | 6.8 | 1000 | 1000 |  |  | 0 | 7 | 
CC(=O)N[C@H](CS)C(=O)N[C@H](CCCNC(=N)N)C(=O)N[C@H](CCCNC(=N)N)C(=O)N[C@H](C)C(=O)N[C@H](CCCNC(=N)N)C(=O)N[C@H](CCCNC(=N)N)C(=O)N[C@H](CCCNC(=N)N)C(N)=O [SEQ ID NO: 10, Ac-crrarrr-NH2] (Ac-[dC][dR][dR][dA][dR][dR][dR]-NH2) | 5.3 | 1100 | 1100 | at least four hours | below the detection limit or essentially zero | 0 | 0 | 
CC(=O)N[C@H](CS)C(=O)N[C@H](CCCNC(=N)N)C(=O)N[C@H](CCCNC(=N)N)C(=O)N[C@H](CCCNC(=N)N)C(=O)N[C@H](C)C(=O)N[C@H](CCCNC(=N)N)C(=O)N[C@H](CCCNC(=N)N)C(N)=O [SEQ ID NO: 11, Ac-crrrarr-NH2] (Ac-[dC][dR][dR][dR][dA][dR][dR]-NH2) | 5.0 | 5900 | 5900 |  |  | 9 | 45 | 
CC(=O)N[C@H](CS)C(=O)N[C@H](CCCNC(=N)N)C(=O)N[C@H](CCCNC(=N)N)C(=O)N[C@H](CCCNC(=N)N)C(=O)N[C@H](CCCNC(=N)N)C(=O)N[C@H](C)C(=O)N[C@H](CCCNC(=N)N)C(N)=O [SEQ ID NO: 12, Ac-crrrrar-NH2] (Ac-[dC][dR][dR][dR][dR][dA][dR]-NH2) | 5.0 | 450 | 450 | at least four hours |  | 3 | 3 | 
CC(=O)N[C@H](CS)C(=O)N[C@H](CCCNC(=N)N)C(=O)N[C@H](CCCNC(=N)N)C(=O)N[C@H](CCCNC(=N)N)C(=O)N[C@H](CCCNC(=N)N)C(=O)N[C@H](CCCNC(=N)N)C(=O)N[C@H](C)C(N)=O [SEQ ID NO: 13, Ac-crrrrra-NH2] (Ac-[dC][dR][dR][dR][dR][dR][dA]-NH2) | 4.1 | 1100 | 1100 |  |  | 4 | 28 | 
CC(=O)N[C@H](CS)C(=O)N[C@H](C)C(=O)N[C@H](CCCNC(=N)N)C(=O)N[C@H](CCCNC(=N)N)C(=O)N[C@H](CCCNC(=N)N)C(=O)N[C@H](CCC(=O)O)C(=O)N[C@H](CCCNC(=N)N)C(N)=O [SEQ ID NO: 68, Ac-carrrer-NH2] (Ac-[dC][dA][dR][dR][dR][dE][dR]-NH2) | 1.3 |  | 62000 |  |  |  |  | 81
